This note sets out measurements from article PMC10584170, “Machine learning-based phenotypic imaging to characterise the targetable biology of Plasmodium falciparum male gametocytes for the development of transmission-blocking antimalarials” (PLOS Pathogens, 2023).

Where two headings read alike, the source gives them in different places.

Data set [1] deals with P. falciparum male gametocytes. Put plainly: P. falciparum Dual Gamete Formation Assay (PfDGFA), male readout (exflagellation). The data set is classed as cell-based, Plasmodium falciparum NF54. To be noted: for Selectivity Ratio M: HepG2 Tox50 versus male IC50. An outline of the steps:
(§1)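 Read-outs are automated image counts of exflagellation centres (brightfield, 10 frames over 1 s) and Pfs25-positive female gametes (Cy3 fluorescence).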

For data set [2], the system named is P. falciparum female gametocytes. Put plainly: P. falciparum Dual Gamete Formation Assay (PfDGFA), female readout (Pfs25-positive female gametes). To be noted: for Selectivity ratio F: HepG2 Tox50 versus female IC50. Format: cell-based, Plasmodium falciparum NF54. An outline of the steps:
as §1

The subject of data set [3] is HepG2 cells. In words: HepG2 cytotoxicity counter-screen. The conditions noted are these: for DGFA Tox50 HepG2: HepG2 value reported with the DGFA screen; for Mean TOX: mean of the HepG2 TOX50 values; for Tox50: cytotoxic activity against HepG2 cells.
Setting [4] is: this study, read-out: Pf DGFA IC50 MALE.
[5] abbreviates: this study, read-out: Pf DGFA IC50 FEM.
Where [6] appears, read: 2µM, 24h preincubation with gametocytes, average of replicates.
Where [7] appears, read: 2µM, 24h preincubation with gametocytes, replicate R1.
Where [8] appears, read: 2µM, 24h preincubation with gametocytes, replicate R3.
Where [9] appears, read: 2µM, 24h preincubation with gametocytes, replicate R4.
Setting [10] is: Plasmodium falciparum, 2µM, 24h preincubation with gametocytes, average of replicates, read-out: Average inhibition male (%).
Where [11] appears, read: Plasmodium falciparum, 2µM, 24h preincubation with gametocytes, replicate R1, read-out: % inhibition male (individual replicates) R1.
Where [12] appears, read: Plasmodium falciparum, 2µM, 24h preincubation with gametocytes, replicate R2, read-out: % inhibition male (individual replicates) R2.
The mark [13] stands for this setting: Plasmodium falciparum, 2µM, 24h preincubation with gametocytes, replicate R3, read-out: % inhibition male (individual replicates) R3.
The mark [14] stands for this setting: Plasmodium falciparum, 2µM, 24h preincubation with gametocytes, replicate R4, read-out: % inhibition male (individual replicates) R4.
Setting [15] is: Plasmodium falciparum, PfDGFA, 24 h incubation with gametocytes before induction, exflagellation readout, read-out: Male IC50.
The mark [16] stands for this setting: Plasmodium falciparum, 2µM, 24h preincubation with gametocytes, average of replicates, read-out: Average inhibition female (%).
Where [17] appears, read: Plasmodium falciparum, 2µM, 24h preincubation with gametocytes, replicate R1, read-out: % inhibition female (individual replicates) R1.
Where [18] appears, read: Plasmodium falciparum, 2µM, 24h preincubation with gametocytes, replicate R2, read-out: % inhibition female (individual replicates) R2.
[19] abbreviates: Plasmodium falciparum, 2µM, 24h preincubation with gametocytes, replicate R3, read-out: % inhibition female (individual replicates) R3.
Where [20] appears, read: Plasmodium falciparum, 2µM, 24h preincubation with gametocytes, replicate R4, read-out: % inhibition female (individual replicates) R4.
[21] abbreviates: Plasmodium falciparum, PfDGFA, 24 h incubation with gametocytes before induction, female gamete readout, read-out: Female IC50.

One may read the IC50 as the concentration at which inhibition is half-maximal. For `COCCn1c(Sc2ncnc3sccc23)nc2ccccc21` [TC65], the “Cytotox ratio Pf Male” value in data set [1] is recorded as 81.3. The IC50 in data set [1] (setting [4]) is 1.23 µM; in data set [2] (setting [5]), 1.06 µM. Moreover, the “Cytotox ratio Pf Female” value in data set [2] is listed as 94.3. For the same compound, in data set [3], the “DGFA Tox50 HepG2” value is 100 µM. Further, the “Mean TOX” value in data set [3] turned out to be 100.00 µM.
Consider `CS(=O)(=O)Cc1ccc(Nc2ncc(Cl)c(Nc3cccnc3C(N)=O)n2)cc1.Cl` [TC68], for which, in data set [1], the “Cytotox ratio Pf Male” value turned out to be 16.0. Also, the half-inhibitory concentration (IC50) in data set [1] (setting [4]) turned out to be 6.25 µM. Also, the “Cytotox ratio Pf Female” value in data set [2] turned out to be 10.0. In data set [3], the “DGFA Tox50 HepG2” value worked out at 100 µM and the “Mean TOX” value was determined as 100.00 µM.
Regarding `Cl.O=C1Nc2ccc3ncccc3c2/C1=C/Nc1ccc(N2CCN(CCO)CC2)cc1` [TC71], in data set [1], the “Cytotox ratio Pf Male” value was 225.8. For the same compound, the 50% inhibitory concentration (IC50) in data set [1] (setting [4]) turned out to be 0.15 µM. The “Cytotox ratio Pf Female” value in data set [2] is 3.4. In addition, the “Mean TOX” value in data set [3] is reported as 33.87 µM.
Consider `CN(C)c1ccnc2ccc(NC(=O)Nc3ccnc4ccccc34)cc12` [TC74], for which, in data set [1], the “Cytotox ratio Pf Male” value is 13.3. Also, the figures for the IC50 in data set [1] (setting [4]) and in data set [2] (setting [5]) were 1.7 µM and 5.92 µM, respectively. Also, the “Cytotox ratio Pf Female” value in data set [2] was 3.8. Moreover, the “Mean TOX” value in data set [3] turned out to be 22.68 µM.
In the case of `CC(CO)(CO)NCc1cc2c3ccccc3c(CNC(C)(CO)CO)cc2c2ccccc12.CS(=O)(=O)O` [TC76], the “Cytotox ratio Pf Male” value in data set [1] turned out to be 15.0. Besides, the results for the IC50 in data set [1] (setting [4]) and in data set [2] (setting [5]) were 0.87 µM and 4.79 µM, respectively. Moreover, the “Cytotox ratio Pf Female” value in data set [2] came to 2.7. In addition, the “Mean TOX” value in data set [3] came to 13.04 µM.
Turning to `CNC(=S)NN=C(C)c1ccccn1` [TCMDC-123475], in data set [1] (setting [6]), the “Average inhibition male (%)” value was determined as 95.4%. Also, the “% inhibition male (individual replicates) R1” value in data set [1] (setting [7]) is 96.5%. Moreover, the “% inhibition male (individual replicates) R3” value in data set [1] (setting [8]) is reported as 96.2%. The “% inhibition male (individual replicates) R4” value in data set [1] (setting [9]) is 91.6%. The “Selectivity Ratio M” value in data set [1] is on record as 0.29. For the same compound, the IC50 in data set [1] (PfDGFA, 24 h incubation with gametocytes before induction, exflagellation readout, read-out: Male IC50) is 0.45 µM; in data set [2] (PfDGFA, 24 h incubation with gametocytes before induction, female gamete readout, read-out: Female IC50) it was 0.27 µM. For the same compound, the “Average inhibition female (%)” value in data set [2] (setting [6]) was determined as 52.8%. In data set [2] (setting [7]), the “% inhibition female (individual replicates) R1” value came to 38.7%. In addition, the “% inhibition female (individual replicates) R3” value in data set [2] (setting [8]) is 43.6%. For the same compound, the “% inhibition female (individual replicates) R4” value in data set [2] (setting [9]) worked out at 50.7%. The “Selectivity ratio F” value in data set [2] was determined as 0.49. The Tox50 in data set [3] stood at 0.13 µM.
One may read the inhibition as the drop in the measured response relative to a control, in per cent. In the case of `O=C1SC(=Cc2ccc(O)c(O)c2)C(=O)N1c1ccccc1` [TCMDC-123491], the “Selectivity Ratio M” value in data set [1] was 21.44. The “Cytotox ratio Pf Male” value in data set [1] (Mean TOX HepG2 over DGFA IC50 MALE, GREEN = >10-fold, RED = <10-fold) is recorded as 21.4. In addition, the inhibition at 2 µM turned out to be 96.8% in data set [1] (setting [10]); 96% in data set [1] (setting [11]); 93.5% in data set [1] (setting [12]); 98.6% in data set [1] (setting [13]); 98.9% in data set [1] (setting [14]); 28.5% in data set [2] (setting [16]). Moreover, the inhibition at 2 µM in data set [2] (setting [17]) was 24.6%; in data set [2] (setting [18]) it was 17.5%; in data set [2] (setting [19]), 26.8%; in data set [2] (setting [20]), 45.3%. In addition, the results for the half-maximal inhibitory concentration (IC50) in data set [1] (setting [15]) and in data set [2] (setting [21]) were 1.72 µM and 8.43 µM, respectively. In addition, in data set [2], the “Selectivity ratio F” value is 4.36. The “Cytotox ratio Pf Female” value in data set [2] (Mean TOX HepG2 over DGFA IC50 FEM, GREEN = >10-fold, RED = <10-fold) is recorded as 4.4. The compound further returned a Tox50 in data set [3] of 36.79 µM. Moreover, in data set [3], the “Mean TOX” value is listed as 36.79 µM.
For `COc1ccc(C[C@H](N)C(=O)N[C@H]2[C@@H](O)[C@H](n3cnc4c(N(C)C)ncnc43)O[C@@H]2CO)cc1` [TCMDC-123493], the “Selectivity Ratio M” value in data set [1] is 3.72. In addition, the inhibition at 2 µM was determined as 76.8% in data set [1] (Plasmodium falciparum, PfDGFA at 2µM, 24h preincubation with gametocytes, average of replicates, read-out: Average inhibition male (%)); 75.8% in data set [1] (Plasmodium falciparum, PfDGFA at 2µM, 24h preincubation with gametocytes, replicate R1, read-out: % inhibition male (individual replicates) R1); 91.9% in data set [1] (Plasmodium falciparum, PfDGFA at 2µM, 24h preincubation with gametocytes, replicate R2, read-out: % inhibition male (individual replicates) R2); 54% in data set [1] (Plasmodium falciparum, PfDGFA at 2µM, 24h preincubation with gametocytes, replicate R3, read-out: % inhibition male (individual replicates) R3); 85.6% in data set [1] (Plasmodium falciparum, PfDGFA at 2µM, 24h preincubation with gametocytes, replicate R4, read-out: % inhibition male (individual replicates) R4); 37.8% in data set [2] (Plasmodium falciparum, PfDGFA at 2µM, 24h preincubation with gametocytes, average of replicates, read-out: Average inhibition female (%)). The inhibition at 2 µM in data set [2] (Plasmodium falciparum, PfDGFA at 2µM, 24h preincubation with gametocytes, replicate R1, read-out: % inhibition female (individual replicates) R1) worked out at 41.5%; in data set [2] (Plasmodium falciparum, PfDGFA at 2µM, 24h preincubation with gametocytes, replicate R2, read-out: % inhibition female (individual replicates) R2), 55%; in data set [2] (Plasmodium falciparum, PfDGFA at 2µM, 24h preincubation with gametocytes, replicate R3, read-out: % inhibition female (individual replicates) R3) it was 20.7%; in data set [2] (Plasmodium falciparum, PfDGFA at 2µM, 24h preincubation with gametocytes, replicate R4, read-out: % inhibition female (individual replicates) R4), 33.9%. Moreover, the half-maximal inhibitory concentration (IC50) came out at 0.91 µM in data set [1] (setting [15]) and 5.14 µM in data set [2] (setting [21]). The HitlevelM in data set [1] (number of replicates with >50% inhibition in the male readout, 2µM) was 4. The “Selectivity ratio F” value in data set [2] is given as 0.66. The compound also gave a HitlevelF in data set [2] (number of replicates with >50% inhibition in the female readout, 2µM) of 1. In data set [3], this compound displayed a Tox50 of 3.39 µM.
For `CN(C)CCCn1c(N)c(-c2nc3ccccc3[nH]2)c2nc(C#N)c(C#N)nc21` [TCMDC-123729], in data set [1], the “Selectivity Ratio M” value is 16. The inhibition at 2 µM is 100% in data set [1] (setting [10]); 96.8% in data set [1] (setting [11]); 102% in data set [1] (setting [12]); 97.3% in data set [1] (setting [13]); 104% in data set [1] (setting [14]); 94.8% in data set [2] (setting [16]). The inhibition at 2 µM was found to be 95.1% in data set [2] (setting [17]), 89.6% in data set [2] (setting [18]), 99.5% in data set [2] (setting [19]) and 95.1% in data set [2] (setting [20]). Moreover, the IC50 in data set [1] (setting [15]) stood at 0.51 µM; in data set [2] (setting [21]), 1.47 µM. The “Selectivity ratio F” value in data set [2] is 5.55. In data set [3], the Tox50 is 8.13 µM.
With `C=CCNc1cc(-c2ccccn2)nc(-c2ccccn2)n1` [TCMDC-123787], the “Selectivity Ratio M” value in data set [1] is on record as 13.76. The inhibition at 2 µM worked out at 94.8% in data set [1] (setting [10]); 93.1% in data set [1] (setting [11]); 94.1% in data set [1] (setting [12]); 97.8% in data set [1] (setting [13]); 94.1% in data set [1] (setting [14]); 33.1% in data set [2] (setting [16]). In addition, the inhibition at 2 µM in data set [2] (setting [17]) came out at 29.8%; in data set [2] (setting [18]), 30%; in data set [2] (setting [19]), 14.9%; in data set [2] (setting [20]), 57.6%. For the same compound, the IC50 in data set [1] (setting [15]) was 0.91 µM; in data set [2] (setting [21]), 4.89 µM. Also, the “Selectivity ratio F” value in data set [2] was 2.57. The same compound returned a Tox50 in data set [3] of 12.58 µM.
